Values joined by “and” are separate entries in the source; they are usually repeats but may differ in a detail not shown here. Equal values may be shown once.
How the values were obtained:
[1] = molecular target: T1, RNA-dependent DNA polymerase activity of HIV reverse transcriptase (Human immunodeficiency virus type 1 group M subtype B, UniProt P04585); assay: RNA-dependent DNA polymerase activity assay of HIV reverse transcriptase; format: biochemical, HIV-1; conditions: 10 μM inhibitor concentration, activity with analog / without analog x 100; for remaining activity at 10 µM: read-out: Residual activity (%) Polymerase
T1 construct: made in house
Procedure: In separate, representative assays, mappicine analogs were tested for their ability to inhibit the RNA-dependent DNA polymerase activity of HIV reverse transcriptase and for their ability to inhibit the RNase H activity of HIV reverse transcriptase. The assay for RNA-dependent DNA polymerase activity is discussed in Borkow, G. et al., “Inhibition of the Ribonuclease H and DNA Polymerase Activities of HIV-1 Reverse Transcriptase by N-(4-tert-Butylbenzoyl)-2-hydroxy-1-naphthaldehyde Hydrazone,” Biochemistry 1997, 36, 3179-3185, a copy of which is attached hereto, and the disclosure of which is incorporated herein by reference. Assays were carried out in the absence and in the presence of mappicine analogs (10 μM final concentration). The results are reported as % residual activity, which is the RNA-dependent DNA polymerase activity of the enzyme in the presence of the mappicine analog divided by the RNA-dependent activity of the enzyme in the absence of the mappicine analog, multiplied by 100.

[2] = molecular target: RNase H activity of HIV reverse transcriptase (Human immunodeficiency virus type 1 group M subtype B, UniProt P04585); assay: Fluorescence (FRET)-based RNase H activity assay of HIV reverse transcriptase; format: biochemical, HIV-1; set-up: final concentration of 2.5 nM of the p51/p66 RT heterodimer in the assay; made in house; conditions: 10 μM inhibitor concentration, activity with analog / without analog x 100; for remaining activity at 10 µM: read-out: Residual activity (%) RNase H
Procedure: Recently, a fluorescence-based assay to perform preliminary screens in search of HIV RNase H inhibitors has been developed. The assay, which is carried out in 96-well microplates and is adaptable to robotics, is the first high-throughput screen for RNase H and is described in further detail in the Experimental section. HIV-1 RT and human RNase H were cloned, and thus comparative analysis of inhibitor action could be conducted simultaneously.
The assay for RNase H activity of HIV reverse transcriptase was the fluorescence-based assay described in detail in the Experimental section and discussed in U.S. Provisional Patent Application Serial No. 60/318,359. Assays were carried out in the absence and in the presence of mappicine analogs (10 μM final concentration). The results are reported as % residual activity, which is the RNase H activity of the enzyme in the presence of the mappicine analog divided by the RNase H activity of the enzyme in the absence of the mappicine analog, multiplied by 100. Alternatively, the results are reported as % inhibition, which is calculated as the ratio of the RNase H activity of the enzyme in the presence of the mappicine analog to the enzyme activity in the absence of the mappicine analog, multiplied by 100, and then subtracting this number from 100.
Assay for Ribonuclease H Activity Based on Fluorescence Resonance Energy Transfer (FRET)
Preparation of the Fluorophore-RNA/Quencher-DNA Hybrid Duplex Substrate.
The RNA/DNA hybrid duplex substrate for use in the assay comprises an RNA oligonucleotide of sequence 5′-GAU CUG AGC CUG GGA GCU-3′, modified at the 3′-end with Aminolink-2 and derivatized with fluorescein isothiocyanate, to provide a modified RNA oligonucleotide of the sequence 5′-GAU CUG AGC CUG GGA GCU-fluorescein-3′, annealed to a complementary DNA oligonucleotide of the sequence 5′-AGC TCC CAG GCT CAG ATC-3′ modified at the 5′-end with Aminolink-2 and derivatized with the FRET acceptor DABCYL succinimidyl ester, to provide a modified DNA oligonucleotide of the sequence 5′-DABCYL-AGC TCC CAG GCT CAG ATC-3′.
To prepare the 3′-fluorescein-RNA/5′-DABCYL-DNA hybrid duplex substrate, a known amount of 3′-fluorescein-RNA was dissolved in 20 mM Tris buffer (pH 8.0, 37° C.) to provide a final concentration of 5 μM. Two equivalents of the 5′-DABCYL-DNA oligonucleotide were added, and the mixture was heated to 90° C. for 5 min and cooled slowly to room temperature to allow duplex formation. The positioning of the fluorescein donor at the 3′-end of the RNA oligonucleotide and the DABCYL acceptor at the 5′-end of the DNA oligonucleotide provides a very close proximity of the donor and acceptor that results in a very intense quenching of the fluorescein emission in the intact RNA/DNA hybrid duplex substrate due to the spectral overlap of the fluorescence emission of fluorescein with the absorption spectrum of DABCYL. In addition, DABCYL is non-fluorescent, and thus cannot contribute any light emission. Both of these factors result in a very low background and provide a high signal-to-noise in the assay measurements. The ratio of the donor fluorescence in the absence and in the presence of its quencher is approximately fifteen-fold.
Microplate Assay Protocol for the Measurement of RNase H Activity Using the RNA/DNA Hybrid Duplex Substrate.
Reaction assay mixtures contained 5 μl of a stock solution of 2.5 μM RNA/DNA hybrid duplex substrate added to 85 μl of assay buffer (50 mM Tris, pH 8.0, 37° C., containing 60 mM KCl and 2.5 mM MgCl2), prepared in the wells of a 96-well fluorescence microtiter plate, and warmed to 37° C. using the temperature control of the SpectraMax Gemini XS microplate spectrofluorometer (Molecular Devices). Reactions were started by the addition of 5 μl of a solution of recombinant HIV-1 reverse transcriptase (usually providing a final concentration of 2.5 nM of the p51/p66 RT heterodimer in the assay), and mixing using the automatic mixing function of the microplate spectrofluorometer. […]

| SMILES | Residual activity (%) Polymerase [1] [%] | Residual activity (%) RNase H [2] [%] | further results |
| --- | --- | --- | --- |
| CCC(O)c1cc2n(c(=O)c1C)Cc1c-2nc2ccc(F)cc2c1-c1ccccc1 (racemic) [3Bα] | 54 | 83 |  |
| CCCCCCc1c2c(nc3ccc(F)cc13)-c1cc(C(=O)CC)c(C)c(=O)n1C2 [8Bακ] | 64 | 103 |  |
| Cc1c(C(=O)CCC2CCCCC2)cc2n(c1=O)Cc1c-2nc2ccccc2c1[Si](C)(C)C(C)(C)C [4Aδκ] | 39 | 102 |  |
| CCCCCCc1c2c(nc3ccccc13)-c1cc(C(O)C(C)(C)C)c(C)c(=O)n1C2 (centres unmarked) [8Aβ] | 103 | 91 |  |
| Cc1ccc2nc3c(c([Si](C)(C)C(C)(C)C)c2c1)Cn1c-3cc(C(=O)C(C)(C)C)c(C)c1=O [4Cβκ] | 67 | 65 |  |
| Cc1c(C(O)Cc2ccccc2)cc2n(c1=O)Cc1c-2nc2ccccc2c1[Si](C)(C)C (racemic) [5Aε] | 54 | 93 |  |
| Cc1c(C(=O)C(C)(C)C)cc2n(c1=O)Cc1c-2nc2ccccc2c1[Si](C)(C)C [5Aβκ] | 47 | 97 |  |
| CCC(=O)c1cc2n(c(=O)c1C)Cc1c-2nc2ccc(OC)cc2c1-c1ccccc1 [3Dακ] | 76 | 104 |  |
| Cc1c(C(O)CCC2CCCCC2)cc2n(c1=O)Cc1c-2nc2ccc(F)cc2c1[Si](C)(C)C (racemic) [5Bδ] | 78 | 103 |  |
| CCCCCCc1c2c(nc3ccccc13)-c1cc(C(=O)Cc3ccccc3)c(C)c(=O)n1C2 [8Aεκ] | 59 | 92 |  |
| Cc1ccc2nc3c(c(-c4ccccc4)c2c1)Cn1c-3cc(C(=O)C(C)(C)C)c(C)c1=O [3Cβκ] | 63 | 96 |  |
| CCc1c2c(nc3ccc(OC(C)=O)cc13)-c1cc(C(O)CC)c(C)c(=O)n1C2 (centres unmarked) [AG 7M, 2-Acetoxy-12-ethyl-7-(1-hydroxypropyl)-8-methyl-11H-indolizino[1,2-b]quinolin-9-one] |  |  | remaining activity at 10 µM [1]: 99%; remaining activity at 10 µM [2]: 63% |
| CCCCCCc1c2c(nc3ccc(C)cc13)-c1cc(C(O)CCC3CCCCC3)c(C)c(=O)n1C2 (centres unmarked) [8Cδ] | 73 | 72 |  |
| Cc1ccc2nc3c(c([Si](C)(C)C)c2c1)Cn1c-3cc(C(=O)C(C)(C)C)c(C)c1=O [5Cβκ] | 76 | 92 |  |
| COc1ccc2nc3c(c([Si](C)(C)C)c2c1)Cn1c-3cc(C(O)CCC2CCCCC2)c(C)c1=O (centres unmarked) [5Dδ] | 57 | 96 |  |
| CCCCCCc1c2c(nc3ccc(C)cc13)-c1cc(C(=O)CC)c(C)c(=O)n1C2 [8Cακ] | 31 | 92 |  |
| Cc1c(C(=O)C(C)(C)C)cc2n(c1=O)Cc1c-2nc2ccc(F)cc2c1[Si](C)(C)C(C)(C)C [4Bβκ] | 82 | 79 |  |

| SMILES | Residual activity (%) Polymerase [1] [%] | Residual activity (%) RNase H [2] [%] | further results |
| --- | --- | --- | --- |
| CCc1c2c(nc3ccccc13)-c1cc(C(O)CC)c(C)c(=O)n1C2 (racemic) [AG 4M] | 100 | 74 |  |
| CCC(=O)c1cc2n(c(=O)c1C)Cc1c-2nc2ccccc2c1[Si](C)(C)C [5Aακ] | 91 | 103 |  |
| Cc1c(C(=O)C(C)(C)C)cc2n(c1=O)Cc1c-2nc2ccccc2c1-c1ccccc1 [3Aβκ] | 64 | 94 |  |
| COc1ccc2nc3c(c([Si](C)(C)C(C)(C)C)c2c1)Cn1c-3cc(C(O)CCC2CCCCC2)c(C)c1=O (racemic) [4Dδ] | 51 | 87 |  |
| CCCCCCc1c2c(nc3ccc(C)cc13)-c1cc(C(O)CC)c(C)c(=O)n1C2 (racemic) [8Cα] | 84 | 65 |  |
| Cc1ccc2nc3c(c(-c4ccccc4)c2c1)Cn1c-3cc(C(O)CCC2CCCCC2)c(C)c1=O (centres unmarked) [3Cδ] | 74 | 93 |  |
| CCCCCCc1c2c(nc3ccc(F)cc13)-c1cc(C(=O)CCC3CCCCC3)c(C)c(=O)n1C2 [8Bδκ] | 80 | 95 |  |
| CCCCCCc1c2c(nc3ccc(OC)cc13)-c1cc(C(O)Cc3ccccc3)c(C)c(=O)n1C2 (centres unmarked) [8Dε] | 73 | 82 |  |
| CCCCCCc1c2c(nc3ccc(OC)cc13)-c1cc(C(=O)CC)c(C)c(=O)n1C2 [8Dακ] |  |  | Residual activity (%) Polymerase ([1]; 10 µM): 90% and 51%; Residual activity (%) RNase H ([2]; 10 µM): 88% and 84% |
| CCC(O)c1cc2n(c(=O)c1C)Cc1c-2nc2ccc(OC)cc2c1-c1ccccc1 (racemic) [3Dα] | 69 | 78 |  |
| Cc1c(C(O)C(C)(C)C)cc2n(c1=O)Cc1c-2nc2ccc(F)cc2c1[Si](C)(C)C(C)(C)C (racemic) [4Bβ] | 49 | 113 |  |
| COc1ccc2nc3c(c([Si](C)(C)C)c2c1)Cn1c-3cc(C(=O)CCC2CCCCC2)c(C)c1=O [5Dδκ] | 40 | 92 |  |
| CCC(O)c1cc2n(c(=O)c1C)Cc1c-2nc2ccc(N)cc2c1[Si](C)(C)C (centres unmarked) [AG 3M, 2-Amino-7-(1-hydroxypropyl)-8-methyl-12-trimethylsilanyl-11H-indolizino[1,2-b]quinolin-9-one] |  |  | remaining activity at 10 µM [1]: 123%; remaining activity at 10 µM [2]: 63% |
| Cc1ccc2nc3c(c([Si](C)(C)C(C)(C)C)c2c1)Cn1c-3cc(C(O)C(C)(C)C)c(C)c1=O (centres unmarked) [4Cβ] | 67 | 94 |  |
| CCCCCCc1c2c(nc3ccccc13)-c1cc(C(=O)CC)c(C)c(=O)n1C2 [8Aακ] | 53 | 77 |  |
| Cc1c(C(O)C(C)(C)C)cc2n(c1=O)Cc1c-2nc2ccc(F)cc2c1[Si](C)(C)C (racemic) [5Bβ] | 74 | 102 |  |
| CCC(O)c1cc2n(c(=O)c1C)Cc1c-2nc2ccc(F)cc2c1[Si](C)(C)C (centres unmarked) [5Bα] | 82 | 105 |  |

— patent US20040058948A1, “Mappicine analogs, methods of inhibiting retroviral reverse transcriptase and methods of treating retroviruses” (priority 2002, published 2004)
